From US11858970B1, “Chili pepper seed isolated oligopeptide FTLE and application thereof in preventing or treating cancer” (CHINA AGRICULTURAL UNIVERSITY, priority 2022, dated 2024)

Test system: HepG2 cells
Test: HepG2 cell proliferation measured by MTT method
Type: cell-based
Conditions: peptide at 0.1, 0.3 and 0.6 mM, 24 hours, compared with other synthetic peptides
Experimental: Chemical systhesis was conducted in accordance with the peptide sequences obtained by mass spectrometry identification analysis of Example 1 to obtain synthetic peptides. The effect of each peptide on HepG2 cell proliferation was studied, and the specific steps were as follows:
1) HepG2 cell culture: hepG2 cells were obtained from the ATCC cell bank and were cultured in a DMEM medium containing 10% FBS at 37° C. in a 5% CO2 cell incubator. Cells were cultured in a 25 cm ^2 flask, passaged when cells were grown to a density of 70% to 90%, and seeded in a 96-well plate.
2) Peptide fragment treatment: after 24 hours of cell culture in the 96-well plate, the original DMEM medium was aspirated from the wells. DMEM containing peptide fragments at concentrations of 0.1, 0.3, and 0.6 mM were added to each well to continue culturing for 24 hours.
3) Cell proliferation rate measured by MTT method: MTT at a concentration of 5 mg/mL was added to a 96-well plate in 20 μL per well. After incubation for 4 hours, the liquid was aspirated from each well. 150 μL DMSO was added to each well. The absorbance was measured after reacting for 20 min.

Phe-Thr-Leu-Glu (FTLE) [oligopeptide identified in chili pepper seed zymolyte, chemically synthesized for testing]
HepG2 cell inhibition rate: better HepG2 cell inhibition rate than other oligopeptides
